Data on 3 compounds can be found in ChEMBL document CHEMBL4765277, “Design, synthesis and biological evaluation of novel indazole-based derivatives as potent HDAC inhibitors via fragment-based virtual screening” (Eur J Med Chem, 2020).

In general, IC50 refers to the midpoint of a concentration-inhibition curve.

Activity calls are given as the source filed them. The rule behind the calls is not given here.

Assay [1] deals with HCT-116. The assay can be described thus: Induction of cell cycle arrest in human HCT116 cells assessed as cell accumulation at G0/G1 phase at 3 uM after 24 hrs by Rnase/PI staining based flow cytometric analysis (reference value: 48.4%). It counts as functional.
In assay [2] the test system is HCT-116. The assay can be described thus: Induction of apoptosis in human HCT-116 cells assessed as necrotic cells at 10 uM after 24 hrs by Annexin V-FITC/PI staining based flow cytometric analysis (reference value: 0.51%). It counts as functional. For orientation: A flow cytometer gives signals particle by particle.
For assay [3], the system named is HCT-116. The assay can be described thus: Inhibition of HDAC in human HCT-116 cells assessed as up regulation of acetylated histone H3 protein expression at 1.25 to 10 uM after 8 hrs by Western blot analysis. It counts as cell-based. Conditions: dose 1.25-10 µM. For orientation: Immunoblotting shows a protein as a band on a membrane.
Assay [4] has as its system HCT-116. The assay can be described thus: Induction of apoptosis in human HCT-116 cells assessed as late apoptotic cells at 1 uM after 24 hrs by Annexin V-FITC/PI staining based flow cytometric analysis (reference value: 5.14%). It counts as functional.
Another assay concerns HeLa. Nature of the assay: cells. It counts as functional, cell-based. The conditions noted are these: Homo sapiens, 72 h.
Assay [5] concerns HCT-116. The assay can be described thus: Induction of apoptosis in human HCT-116 cells assessed as viable cells at 1 uM after 24 hrs by Annexin V-FITC/PI staining based flow cytometric analysis (reference value: 90.34%). It counts as functional. Conditions: Homo sapiens, HCT-116, read-out: Activity.
The subject of assay [6] is HCT-116. The assay can be described thus: Induction of apoptosis in human HCT-116 cells assessed as necrotic cells at 3 uM after 24 hrs by Annexin V-FITC/PI staining based flow cytometric analysis (reference value: 0.51%). It counts as functional.
Another assay relates to MCF7. Nature of the assay: cells. The conditions noted are these: Homo sapiens, MCF7, 72 h.
Assay [7] concerns HCT-116. The assay can be described thus: Induction of cell cycle arrest in human HCT116 cells assessed as cell accumulation at S phase at 3 uM after 24 hrs by Rnase/PI staining based flow cytometric analysis (reference value: 25.2%). It counts as functional.
In assay [8] the test system is HCT-116. The assay can be described thus: Induction of cell cycle arrest in human HCT116 cells assessed as cell accumulation at G2/M phase at 3 uM after 24 hrs by Rnase/PI staining based flow cytometric analysis (reference value: 26.4%). It counts as functional.
For a further assay, the target named is T1, Histone deacetylase 8 (Homo sapiens, UniProt Q9BY41).
T1 sequence (Q9BY41 whole entry): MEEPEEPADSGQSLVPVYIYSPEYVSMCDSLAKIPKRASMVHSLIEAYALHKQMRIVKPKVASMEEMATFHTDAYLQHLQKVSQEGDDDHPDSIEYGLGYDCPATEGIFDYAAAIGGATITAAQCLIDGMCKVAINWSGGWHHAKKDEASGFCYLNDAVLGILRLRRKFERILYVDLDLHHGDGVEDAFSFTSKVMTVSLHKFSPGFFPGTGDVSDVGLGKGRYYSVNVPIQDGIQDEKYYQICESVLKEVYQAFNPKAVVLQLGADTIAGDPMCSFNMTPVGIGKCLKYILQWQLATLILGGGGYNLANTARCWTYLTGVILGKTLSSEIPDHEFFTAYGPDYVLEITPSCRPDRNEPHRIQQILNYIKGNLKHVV
Nature of the assay: Inhibition of recombinant human full length C-terminal His-tagged HDAC8 expressed in sf9 insect cells using Boc-Lys(TFA)-AM as substrate incubated for 60 mins by fluorescence assay.

The test system of assay [9] is HCT-116. Nature of the assay: Induction of apoptosis in human HCT-116 cells assessed as early apoptotic cells at 10 uM after 24 hrs by Annexin V-FITC/PI staining based flow cytometric analysis (reference value: 4.01%). It counts as functional.
Assay [10] concerns HCT-116. The assay can be described thus: Induction of apoptosis in human HCT-116 cells assessed as viable cells at 3 uM after 24 hrs by Annexin V-FITC/PI staining based flow cytometric analysis (reference value: 90.34%). The conditions noted are these: Homo sapiens, HCT-116, read-out: Activity. It counts as functional.
In assay [11] the test system is HCT-116. Nature of the assay: Induction of apoptosis in human HCT-116 cells assessed as early apoptotic cells at 3 uM after 24 hrs by Annexin V-FITC/PI staining based flow cytometric analysis (reference value: 4.01%). It counts as functional.
The target of the next assay is Histone deacetylase 2 (Homo sapiens, UniProt Q92769). Nature of the assay: Inhibition of recombinant human C-terminal His-tagged HDAC2 (1 to end residues) expressed in sf9 insect cells using Boc-Lys(Ac)-AMC as substrate incubated for 60 mins by fluorescence assay.
Assay [12] relates to HCT-116. The assay can be described thus: Induction of apoptosis in human HCT-116 cells assessed as late apoptotic cells at 10 uM after 24 hrs by Annexin V-FITC/PI staining based flow cytometric analysis (reference value: 5.14%). It counts as functional.
In assay [13] the test system is HCT-116. The assay can be described thus: Induction of apoptosis in human HCT-116 cells assessed as late apoptotic cells at 3 uM after 24 hrs by Annexin V-FITC/PI staining based flow cytometric analysis (reference value: 5.14%). It counts as functional.
Assay [14] concerns HCT-116. Nature of the assay: Induction of apoptosis in human HCT-116 cells assessed as necrotic cells at 1 uM after 24 hrs by Annexin V-FITC/PI staining based flow cytometric analysis (reference value: 0.51%). It counts as functional.
For assay [15], the system named is HCT-116. Nature of the assay: Induction of apoptosis in human HCT-116 cells assessed as viable cells at 10 uM after 24 hrs by Annexin V-FITC/PI staining based flow cytometric analysis (reference value: 90.34%). It counts as functional. The conditions noted are these: read-out: Activity.
The target in another assay is Histone deacetylase 1 (Homo sapiens, UniProt Q13547). Nature of the assay: Inhibition of recombinant human C-terminal His/FLAG-tagged HDAC1 (1 to end residues) expressed in sf9 insect cells using Boc-Lys(Ac)-AMC as substrate incubated for 60 mins by fluorescence assay.
Assay [16] relates to HCT-116. Nature of the assay: Induction of apoptosis in human HCT-116 cells assessed as early apoptotic cells at 1 uM after 24 hrs by Annexin V-FITC/PI staining based flow cytometric analysis (reference value: 4.01%). It counts as functional.
In assay [17] the test system is HCT-116. Nature of the assay: Antiproliferative activity against human HCT-116 cells assessed as reduction in cell viability after 72 hrs by MTT assay. It counts as functional, cell-based. Conditions: HCT-116, 72 h. On the technique in general: Formazan colour is commonly taken as a measure of viable cells.
Assay [18] relates to HCT-116. The assay can be described thus: Inhibition of HDAC in human HCT-116 cells assessed as up regulation of acetylated tubulin protein expression at 1.25 to 10 uM after 8 hrs by Western blot analysis. It counts as cell-based. Conditions: dose 1.25-10 µM.
Assay [19] relates to HCT-116. The assay can be described thus: Induction of apoptosis in human HCT-116 cells after 24 hrs by Annexin V-FITC/PI staining based flow cytometric analysis. It counts as functional, cell-based.

Sequence of Histone deacetylase 2 (Q92769 whole entry): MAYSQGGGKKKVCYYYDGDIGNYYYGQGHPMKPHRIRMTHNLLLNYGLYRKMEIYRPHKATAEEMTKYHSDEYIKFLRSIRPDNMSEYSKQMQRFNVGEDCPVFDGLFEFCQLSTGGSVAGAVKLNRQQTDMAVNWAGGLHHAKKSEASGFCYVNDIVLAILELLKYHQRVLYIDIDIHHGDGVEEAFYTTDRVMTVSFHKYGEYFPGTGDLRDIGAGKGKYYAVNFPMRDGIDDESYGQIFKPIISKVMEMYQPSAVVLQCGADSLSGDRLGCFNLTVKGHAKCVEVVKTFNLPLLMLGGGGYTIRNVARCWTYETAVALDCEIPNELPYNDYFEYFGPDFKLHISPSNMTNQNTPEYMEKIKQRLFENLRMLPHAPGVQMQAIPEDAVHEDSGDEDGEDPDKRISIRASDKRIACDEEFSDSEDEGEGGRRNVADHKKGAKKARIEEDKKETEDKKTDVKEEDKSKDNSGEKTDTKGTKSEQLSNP
Sequence of Histone deacetylase 1 (Q13547 whole entry): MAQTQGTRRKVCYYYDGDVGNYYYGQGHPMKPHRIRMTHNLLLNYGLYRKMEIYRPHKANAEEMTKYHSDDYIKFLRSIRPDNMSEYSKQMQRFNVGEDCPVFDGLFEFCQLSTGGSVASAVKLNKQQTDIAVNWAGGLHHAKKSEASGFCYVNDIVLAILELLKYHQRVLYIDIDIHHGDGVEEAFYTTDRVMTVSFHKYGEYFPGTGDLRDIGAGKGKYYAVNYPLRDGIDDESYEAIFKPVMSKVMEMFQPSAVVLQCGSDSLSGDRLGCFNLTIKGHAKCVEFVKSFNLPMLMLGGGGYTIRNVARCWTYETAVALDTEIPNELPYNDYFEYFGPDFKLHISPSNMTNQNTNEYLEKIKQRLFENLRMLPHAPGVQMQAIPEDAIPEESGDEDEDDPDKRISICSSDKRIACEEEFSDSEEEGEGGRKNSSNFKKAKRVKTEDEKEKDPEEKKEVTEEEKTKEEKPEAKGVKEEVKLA
Description for HeLa: Antiproliferative activity against human HeLa cells assessed as reduction in cell viability after 72 hrs by MTT assay
Description for MCF7: Antiproliferative activity against human MCF7 cells assessed as reduction in cell viability after 72 hrs by MTT assay

Turning to `COc1ccc(-c2ccc3c(NC(=O)CCCCCCC(=O)NO)n[nH]c3n2)cc1`, the Activity in the assay with HCT-116 [1] is recorded as 50%; in the assay on HCT-116 [2], 1.1%; in the assay with HCT-116 [4] it was 5.52%; in the assay with HCT-116 [6] it was 0.24%; in the assay with HCT-116 [7] it was 26.1%; in the assay on HCT-116 [8], 23.9%. Also, the Activity in the assay on HCT-116 [9] came to 5.75%; with HCT-116 [11] it was 2.89%; in the assay on HCT-116 [12], 13.34%; in the assay on HCT-116 [13], 7.8%; in the assay on HCT-116 [14] it was 0.31%; in the assay with HCT-116 [16] it was 2.34%. Moreover, the inhibition result in the assay on HCT-116 [3] and with HCT-116 [18] was “Active” throughout. Further, the IC50 in the assay on HeLa was determined as 4800 nM; in the assay on MCF7, 1200 nM; at Histone deacetylase 8 it was 7.2 nM; at Histone deacetylase 2, 9 nM; on Histone deacetylase 1 it was 6 nM; in the assay on HCT-116 [17], 4100 nM. The viability at 1 µM in the assay with HCT-116 [5] stood at 91.8%. Also, the viability at 3 µM with HCT-116 [10] was 89.1%. Also, the viability at 10 µM in the assay on HCT-116 [15] was determined as 79.8%.

With `O=C(CCCCCCC(=O)Nc1n[nH]c2cc(-c3ccc(Cl)cc3)ccc12)NO`, the Activity with HCT-116 [1] came to 26.2%; with HCT-116 [2], 2.47%; with HCT-116 [4], 46.29%; in the assay with HCT-116 [6], 0.86%; in the assay on HCT-116 [7], 29.7%; in the assay with HCT-116 [8] it was 44.1%. Also, the Activity in the assay with HCT-116 [9] was 12.32%; in the assay with HCT-116 [19] it was “Dose-dependent effect”; in the assay with HCT-116 [11] it was 10.36%; in the assay on HCT-116 [12] it was 61.98%; in the assay on HCT-116 [13], 64.75%; in the assay with HCT-116 [14] it was 2.41%. Besides, the Activity in the assay with HCT-116 [16] amounted to 8.73%. Moreover, the inhibition entry in the assay with HCT-116 [3] and with HCT-116 [18] was “Active” throughout. For the same compound, the half-inhibitory concentration (IC50) came out at 4800 nM in the assay on HeLa; 1000 nM in the assay with MCF7; 3.3 nM on Histone deacetylase 8; 3.6 nM on Histone deacetylase 2; 3.1 nM on Histone deacetylase 1; 3900 nM in the assay on HCT-116 [17]. In addition, the viability at 1 µM in the assay on HCT-116 [5] was determined as 40.6%. Besides, in the assay on HCT-116 [10], the viability at 3 µM came to 24%. In addition, in the assay with HCT-116 [15], the viability at 10 µM stood at 23.2%.

As to `COc1ccc(-c2ccc3c(NC(=O)CCCCCCC(=O)NO)n[nH]c3c2)cc1`, the Activity with HCT-116 [1] amounted to 29.8%; with HCT-116 [2] it was 1.19%; in the assay with HCT-116 [4] it was 40.02%; in the assay on HCT-116 [6], 0.33%; in the assay on HCT-116 [7], 26.9%; in the assay with HCT-116 [8], 43.3%. The Activity was 15.64% with HCT-116 [9]; “Dose-dependent effect” with HCT-116 [19]; 13.72% in the assay on HCT-116 [11]; 62.58% in the assay on HCT-116 [12]; 54.58% in the assay with HCT-116 [13]; 0.27% in the assay with HCT-116 [14]. The Activity in the assay on HCT-116 [16] was determined as 17.34%. For the same compound, the inhibition entry in the assay on HCT-116 [3] and in the assay on HCT-116 [18] was “Active” throughout. For the same compound, the IC50 was 4400 nM in the assay on HeLa; 900 nM in the assay on MCF7; 3.6 nM at Histone deacetylase 8; 4.2 nM at Histone deacetylase 2; 2.7 nM at Histone deacetylase 1; 2100 nM in the assay with HCT-116 [17]. Further, the viability at 1 µM in the assay with HCT-116 [5] came out at 42.4%. Further, the viability at 3 µM in the assay on HCT-116 [10] came to 31.4%. In addition, in the assay on HCT-116 [15], the viability at 10 µM turned out to be 20.6%.
